# Paper PMC11491004, “CHF6523 data suggest that the phosphoinositide 3-kinase delta isoform is not a suitable target for the management of COPD” (Respiratory Research, 2024)
# Tests used:
# [1] = tested on: target biomarkers in sputum; experiment: Target biomarkers of inflammation in induced sputum; type: in vivo, human; conditions: p < 0.05; with the exception of IL-5
# Procedure: All assessment timings were based on the morning dose. Pre-dose on Days 1 and 28 of each treatment period, blood samples were taken for pharmacokinetic analyses, followed by forced oscillation (including slow vital capacity manoeuvres for inspiratory capacity [IC] and vital capacity [VC]), spirometry (forced expiratory volume in 1 s [FEV1] and forced vital capacity [FVC]), and the COPD Assessment Test (CAT). Blood samples were also taken up to 12 h post-dose on Days 1 and 28 for pharmacokinetic analyses, with blood samples for biomarker assessment pre-dose on Day 1 and 2 h post-dose on Day 28, and spirometry pre-dose on Days 20 and 24. […]
# Fold-change from baseline in cell counts, target biomarkers in sputum and blood, and PIP3 were log-transformed and analysed using an analysis of covariance (ANCOVA) model, with treatment, patient, and period as fixed effects, and baseline value as covariate. Changes from baseline in spirometry, forced oscillation and CAT endpoints were analysed using a similar ANCOVA model, but without log transformation. Rescue medication data were analysed using an analysis of variance model, including treatment, period and patient as fixed effects. […]
# [2] = COPD Assessment Test and rescue medication use; type: in vivo, human
# Procedure: All assessment timings were based on the morning dose. Pre-dose on Days 1 and 28 of each treatment period, blood samples were taken for pharmacokinetic analyses, followed by forced oscillation (including slow vital capacity manoeuvres for inspiratory capacity [IC] and vital capacity [VC]), spirometry (forced expiratory volume in 1 s [FEV1] and forced vital capacity [FVC]), and the COPD Assessment Test (CAT). Blood samples were also taken up to 12 h post-dose on Days 1 and 28 for pharmacokinetic analyses, with blood samples for biomarker assessment pre-dose on Day 1 and 2 h post-dose on Day 28, and spirometry pre-dose on Days 20 and 24. Sputum was induced prior to each treatment period for baseline determination of biomarkers, and post-dose on Day 20 for collection of phosphatidylinositol (3,4,5)-trisphosphate (PIP3), and on Days 24 and 28 for collection of biomarkers.
# (§1) Fold-change from baseline in cell counts, target biomarkers in sputum and blood, and PIP3 were log-transformed and analysed using an analysis of covariance (ANCOVA) model, with treatment, patient, and period as fixed effects, and baseline value as covariate. Changes from baseline in spirometry, forced oscillation and CAT endpoints were analysed using a similar ANCOVA model, but without log transformation. Rescue medication data were analysed using an analysis of variance model, including treatment, period and patient as fixed effects. Other data, including the proportion of days on which patients coughed and the cough VAS results, are presented descriptively only. Further details, including the transcriptomics, mass-spectrometry and Olink proteomics, bioinformatics and multi-omic data integration are in the supplement.
# [3] = tested on: genes in blood and sputum; experiment: Transcriptomics (RNA-seq) in blood and sputum; type: in vivo, human
# Procedure: PAXgene RNA blood samples and induced sputum samples collected in Trizol were analysed at Almac Diagnostic Services (Craigavon, Northern Ireland, UK). RNA extraction and quality assessment of the PAXGene blood and sputum samples were performed, prior to downstream next generation sequencing (NGS). To minimise any technical variability, samples were randomised into processing batches for RNA extraction and NGS library preparation.
# After extraction, all RNA underwent quality assessment. PAXGene RNA samples were assessed using a combination of Nanodrop (quantity) and the Agilent Tapestation (integrity), and Sputum RNA samples were assessed using the Qubit RNA assay (quantity) and Agilent Tapestation (integrity). Nanodrop was used for quantity assessment of RNA extracted from sputum in order to preserve a sample for downstream library preparation input.
# Upon successful completion of the quality assessment, samples underwent library preparation using Kapa RNA Hyperprep with Riboerase kit. PAXGene Blood RNA samples were also treated with globin depletion oligos. Following library preparation, all generated libraries underwent quality assessment (quantification via Quant-iT dsDNA high-sensitivity assay, and fragment size assessment via the Agilent Tapestation) before being loaded on to a NovaSeq 6000 and sequenced with a total read length of 2x76bp, to a read budget of 50 million paired end reads (total 100 million reads) per sample. Processing control samples were included in the processing batch. Upon completion of sequencing, the quality of sequencing was assessed for the following parameters: clusters passing filter, Q30 scores, error rate, cluster density and read distribution.
# Raw sequence data in FASTQ format were subject to a number of quality control assessment steps hosted on the DNAnexus cloud platform. Basic sequencing metrics such as GC content were calculated from unaligned reads using FastQC. Potential ribosomal RNA (rRNA) contamination was assessed using the Burrows-Wheeler Aligner (BWA) and samtools flagstat to determine the number of reads aligning to a ribosomal RNA (rRNA) sequence database. Read alignment to the human reference genome GRCh38 was then performed using StarAlign, with outputs used to calculate post-alignment quality control (QC) metrics such as duplication rate, calculated using Picard MarkDuplicates and a housekeeping coverage metric using a custom script. […] Both pre- and post alignment QC metrics were then reviewed to check for potential problems originating from the sequencing run or starting library material.
# The aim was to identify genes that were differentially expressed in response to treatment with CHF6523 from blood and sputum samples.
# The ANCOVA model was specified as change from pre-dose to post-dose expression as dependent variable. The independent variables were treatment (reference: placebo), patient, period, and pre-dose expression.
# Functional enrichment was performed on those differentially expressed gene lists that had at least 20 genes with FDR<0.05 using ToppFun enrichment on the ToppGene website (https://toppgene.cchmc.org/enrichment.jsp, accessed 05 May 2023 [4]). The background of the enrichment used were those genes that were available in the original datamatrix.
# [4] = tested on: eosinophilic/type-2 inflammation; conditions: series of preclinical studies in rat or mouse models of airway inflammation; cited from earlier work
# [5] = Cough episodes: daily diary and visual analogue scale; type: in vivo, human; conditions: for Mean cough VAS score (95% CI): VAS 100 mm, 0 no cough, 100 worst cough ever
# Procedure: as §1
smiles,measurement,setting,value
C[C@@H](c1oc(=O)c2ccccc2c1-c1cccc(CN2CCN(C)CC2)c1)n1nc(-c2cncc(O)c2)c2c(N)ncnc21 [CHF6523],CHF6523–placebo differences in target biomarkers in sputum,[1],no statistically significant
same,"Rescue medication use, adjusted mean (95% CI)",[2]; 28-day treatment period,"1.69 (1.40, 1.99) Puffs/day"
same,"Rescue medication use, adjusted mean difference CHF6523 vs placebo (95% CI)",[2]; 28-day treatment period,"0.28 (–0.14, 0.70); p=0.190 Puffs/day"
same,"Rescue medication use: days with no use, adjusted mean (95% CI)",[2]; 28-day treatment period,"49.0 (40.3, 57.7) %"
same,"Rescue medication use: days with no use, adjusted mean difference CHF6523 vs placebo (95% CI)",[2]; 28-day treatment period,"–5.7 (–17.9, 6.6); p=0.354%"
same,"COPD Assessment Test total score, adjusted mean difference CHF6523 vs placebo (95% CI)",[2]; Day 28,"0.6 (–0.7, 2.0); p=0.340"
same,Differentially expressed genes in blood,"[3]; blood, RNA-seq, 24 patients",No differentially expressed genes
same,|log2FC| of the six genes with |log2FC| >1,[3]; sputum,1.019–1.067
same,TLR1 log2FC,"[3]; sputum, FDR = 0.0155",0.71
same,TLR10 log2FC,"[3]; sputum, FDR = 0.0418",0.48
same,TLR6 log2FC,"[3]; sputum, FDR = 0.0451",0.52
same,Genes significantly differentially expressed in sputum,"[3]; sputum, RNA-seq, FDR < 0.05, more than 38,000 genes evaluated",126 genes
same,Differentially expressed genes in sputum that were upregulated,"[3]; sputum, of 126",119 genes
same,Inhibition of eosinophilic/type-2 inflammation,[4],potent inhibition of eosinophilic/type-2 inflammation comparable to that of nemiralisib
same,"Days on which patients coughed, adjusted mean","[5]; daily diary, 2 mg twice daily inhaled, 95% CI 63.5%, 84.5%",74.0%
same,Mean cough VAS score (95% CI),[5]; evening,"31.3 (22.1, 40.4) mm"
same,Cough events not resolving within 1 h after inhalation,[5]; in vivo,3.2%
same,Mean cough VAS score (95% CI),[5]; morning,"30.3 (95% CI 21.3, 39.3) mm"
